Measured values taken from publication PMC7734590, “Identification of a Selective RelA Inhibitor Based on DSE-FRET Screening Methods” (International Journal of Molecular Sciences, 2020).

Legend:
[1] = system: T1, NF-κB–DNA complexes in PK8 nuclear extract; assay: EMSA with nuclear extracts from TNF-α-treated PK8 cells; format: biochemical, human; conditions: TNF-α 50 ng/mL 10 min
T1 construct: nuclear extracts from tumor necrosis factor (TNF)-α-treated PK8 cells; endogenous in cells; host or cells: PK8 (human pancreatic carcinoma), TNF-α 50 ng/mL for 10 min, nuclear extract
Procedure: (§1) For EMSA using nuclear extract, PK8 cells were treated with TNF-α (50 ng/mL) for 10 min before nuclear protein extraction. The cells were washed with ice-cold phosphate-buffered saline (PBS), followed by buffer A (10 mM HEPES–NaOH, pH 7.9, 10 mM KCl, 1.5 mM MgCl2, 0.5 mM DTT, and 0.5 mM phenylmethanesulfonyl fluoride (PMSF)). After 15 min on ice, the cell suspension was centrifuged at 4 °C for 3 min at 2000 rpm, and the resultant cell pellets were resuspended in buffer A. Cells were homogenized using Dounse homogenizer type A (tight, 50 stroke) on ice. Homogenates were centrifuged at 4 °C for 10 min at 5000 rpm, and the resultant nuclear protein pellets were resuspended in buffer C (20 mM HEPES–NaOH pH 7.9, 600 mM KCl, 1.5 mM MgCl2, 25% glycerol, 0.2 mM EDTA, 0.5 mM DTT, and 0.5 mM PMSF). The nuclear proteins were incubated for 1 h on ice with intermittent tapping followed by 15 min of centrifugation at 18,000 rpm (4 °C). The supernatants were dialyzed using a Slide-A-Layzer Dialysis cassette 3500MW (Thermo: 66110) with buffer D (20 mM HEPES–NaOH pH 7.9, 100 mM KCl, 20% glycerol, 0.2 mM EDTA, 0.5 mM DTT, and 0.5 mM PMSF). The dialysis products were then aliquoted, snap-frozen, and stored at −80 °C.

[2] = system: NF-κB–DNA complexes in PK8 nuclear extract; assay: as above; format: biochemical, human; conditions: 500 µM A55
Procedure: as §1

SMILES: Cc1cc(O)n(CC(=O)O)c(=O)c1C(N)=O [A55, 2-(3-carbamoyl-6-hydroxy-4-methyl-2-oxopyridin-1(2H)-yl) acetic acid]
- EMSA band shift, RelA–DNA complex (upper band) [1]: Only the upper band disappeared
- EMSA band shift, other protein–DNA complexes (lower band) [2]: did not affect the lower band
